Structures are written as SMILES.

This series can be described thus: method code SF-RC, from DOI: 10.1021/jf60225a019, PMID: 546944.
The logP is the decadic logarithm of the partition coefficient of the neutral form, usually between octanol and water. Higher therefore signals higher lipophilicity. Take `CCOc1ccc(C(c2ccc(OCC)cc2)C(C)Cl)cc1` (stereo unspecified): the logP came out at 3.58.

Compound `COc1ccc(C(c2ccc(OC)cc2)C(C)(C)C)cc1` had a logP of 3.57.

`CCOc1ccc(C(c2ccc(OCC)cc2)C(C)(Cl)Cl)cc1` showed a logP of 3.64.

Compound `CCOc1ccc(C(c2ccc(OCC)cc2)C(C)C)cc1` showed a logP of 3.61.

Turning to `CCOc1ccc(C(c2ccc(OCC)cc2)C(C)(C)C)cc1`, the logP came to 3.16.

Compound `CCOc1ccc(C(c2ccc(OCC)cc2)C(C)(C)Cl)cc1` displayed a lipophilicity (logP) of 3.25.

For the compound `CCOc1ccc(C(c2ccc(C)cc2)C(C)[N+](=O)[O-])cc1` (stereo unspecified), the log partition coefficient (logP) worked out at 3.46.

Compound `CCOc1ccc(C(c2ccc(C)cc2)C(C)C)cc1` (stereo unspecified) registered a lipophilicity (logP) of 3.55. This logP and that of the compound before are within 0.2 log units of each other.

In the case of `CCOc1ccc(C(c2ccc(OCC)cc2)C(Cl)Cl)cc1`, the log partition coefficient (logP) came to 3.65. This logP and that of the compound before are within 0.2 log units of each other.

With `CCOc1ccc(C(c2ccc(C)cc2)C(C)Cl)cc1` (stereo unspecified), the logP was 3.19.

On to `CCOc1ccc(C(c2ccc(OCC)cc2)C(C)[N+](=O)[O-])cc1` (stereo unspecified), for which the logP stood at 3.45.

For the origin of these results see the SangsterLogP compilation.
